The text below walks through data of patent publication US9944654B2, “Nargenicin compounds and uses thereof as antibacterial agents” (priority 2014, dated 2018).

The test system of assay [1] is Staphylococcus aureus MB6266 (MRSA COL). Briefly: Nargenicin antibacterial assay (MIC), S. aureus. In kind it is cell-based. As to conditions: MHII broth + 50% human serum; * = some reduction of growth versus control at […].
In assay [2] the test system is Pseudomonas aeruginosa MB5890 (CB1101, efflux-deleted). The assay is described as follows: microbe, parasite or virus in culture. The conditions noted are these: MHII broth; * = some reduction of growth versus control at […]. In kind it is cell-based.
For assay [3], the system named is Drug susceptible M. tuberculosis clinical isolates. In kind it is cell-based, Mycobacterium tuberculosis.
Assay [4] relates to Streptococcus pneumoniae MB6357 (CL 2883). The assay is described as follows: Nargenicin antibacterial assay (MIC), S. pneumoniae. As to conditions: Isosensitest broth; * = some reduction of growth versus control at […]. In kind it is cell-based.
Assay [5] has as its target T1, S. aureus DnaE (DNA polymerase III α-subunit homolog from Staphylococcus aureus) (Staphylococcus aureus, UniProt Q5HF71).
T1 construct: SaDnaE (S. aureus DnaE residues 1-1065); 6xHis (N); made in house; host or cells: E. coli BL21-AI
T1 sequence (Q5HF71 1-1065): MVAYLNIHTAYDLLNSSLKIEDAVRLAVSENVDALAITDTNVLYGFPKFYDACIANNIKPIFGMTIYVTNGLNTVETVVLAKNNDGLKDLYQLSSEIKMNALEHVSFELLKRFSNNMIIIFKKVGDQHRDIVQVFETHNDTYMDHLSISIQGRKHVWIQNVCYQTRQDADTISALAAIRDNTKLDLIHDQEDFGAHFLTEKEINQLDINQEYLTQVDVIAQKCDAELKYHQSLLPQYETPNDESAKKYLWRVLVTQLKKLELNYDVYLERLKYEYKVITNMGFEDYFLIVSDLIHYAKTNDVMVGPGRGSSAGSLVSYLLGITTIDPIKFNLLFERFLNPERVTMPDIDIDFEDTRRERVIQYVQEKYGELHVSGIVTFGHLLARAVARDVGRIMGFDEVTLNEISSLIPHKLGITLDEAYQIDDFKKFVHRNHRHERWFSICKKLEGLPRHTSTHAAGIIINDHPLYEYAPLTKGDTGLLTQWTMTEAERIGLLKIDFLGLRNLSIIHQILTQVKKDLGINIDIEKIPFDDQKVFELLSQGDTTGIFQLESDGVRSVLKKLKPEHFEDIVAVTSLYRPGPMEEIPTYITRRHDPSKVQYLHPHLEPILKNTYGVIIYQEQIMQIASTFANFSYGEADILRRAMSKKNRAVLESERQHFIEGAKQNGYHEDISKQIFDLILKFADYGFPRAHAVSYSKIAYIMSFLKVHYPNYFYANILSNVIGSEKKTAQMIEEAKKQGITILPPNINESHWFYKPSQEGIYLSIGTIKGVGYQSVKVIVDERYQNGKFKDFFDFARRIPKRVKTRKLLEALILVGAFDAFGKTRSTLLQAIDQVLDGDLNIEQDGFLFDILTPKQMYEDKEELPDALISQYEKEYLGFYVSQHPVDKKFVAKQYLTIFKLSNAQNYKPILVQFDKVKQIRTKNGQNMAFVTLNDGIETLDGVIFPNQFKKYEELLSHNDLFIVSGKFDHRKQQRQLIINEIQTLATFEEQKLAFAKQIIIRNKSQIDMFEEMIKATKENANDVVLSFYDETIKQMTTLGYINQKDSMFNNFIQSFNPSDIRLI
The assay is described as follows: biochemical. In kind it is biochemical. In outline:
(§1)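 3H-dTTP (0.011 mM) incorporation into DNase I-activated calf thymus DNA, alongside the other three dNTPs at 0.025 mM, measured by filter counting after TCA precipitation. Reactions ran 30 min at 30° C., started with purified N-His DnaE: 0.8 μg/ml for E. coli, 0.05 μg/ml for S. aureus.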

In assay [6] the test system is Escherichia coli MB5747 (LS 883, tolC). Briefly: microbe, parasite or virus in culture. Type of assay: cell-based. As to conditions: MHII broth; * = some reduction of growth versus control at […].
For assay [7], the target named is T2, E. coli DnaE (DNA polymerase III α-subunit from Escherichia coli) (Escherichia coli, UniProt P10443).
T2 construct: EcDnaE (E. coli DnaE residues 1-1160); 6xHis (N); made in house; host or cells: E. coli BL21(DE3)
T2 sequence (P10443 whole entry, the tested form may be a part): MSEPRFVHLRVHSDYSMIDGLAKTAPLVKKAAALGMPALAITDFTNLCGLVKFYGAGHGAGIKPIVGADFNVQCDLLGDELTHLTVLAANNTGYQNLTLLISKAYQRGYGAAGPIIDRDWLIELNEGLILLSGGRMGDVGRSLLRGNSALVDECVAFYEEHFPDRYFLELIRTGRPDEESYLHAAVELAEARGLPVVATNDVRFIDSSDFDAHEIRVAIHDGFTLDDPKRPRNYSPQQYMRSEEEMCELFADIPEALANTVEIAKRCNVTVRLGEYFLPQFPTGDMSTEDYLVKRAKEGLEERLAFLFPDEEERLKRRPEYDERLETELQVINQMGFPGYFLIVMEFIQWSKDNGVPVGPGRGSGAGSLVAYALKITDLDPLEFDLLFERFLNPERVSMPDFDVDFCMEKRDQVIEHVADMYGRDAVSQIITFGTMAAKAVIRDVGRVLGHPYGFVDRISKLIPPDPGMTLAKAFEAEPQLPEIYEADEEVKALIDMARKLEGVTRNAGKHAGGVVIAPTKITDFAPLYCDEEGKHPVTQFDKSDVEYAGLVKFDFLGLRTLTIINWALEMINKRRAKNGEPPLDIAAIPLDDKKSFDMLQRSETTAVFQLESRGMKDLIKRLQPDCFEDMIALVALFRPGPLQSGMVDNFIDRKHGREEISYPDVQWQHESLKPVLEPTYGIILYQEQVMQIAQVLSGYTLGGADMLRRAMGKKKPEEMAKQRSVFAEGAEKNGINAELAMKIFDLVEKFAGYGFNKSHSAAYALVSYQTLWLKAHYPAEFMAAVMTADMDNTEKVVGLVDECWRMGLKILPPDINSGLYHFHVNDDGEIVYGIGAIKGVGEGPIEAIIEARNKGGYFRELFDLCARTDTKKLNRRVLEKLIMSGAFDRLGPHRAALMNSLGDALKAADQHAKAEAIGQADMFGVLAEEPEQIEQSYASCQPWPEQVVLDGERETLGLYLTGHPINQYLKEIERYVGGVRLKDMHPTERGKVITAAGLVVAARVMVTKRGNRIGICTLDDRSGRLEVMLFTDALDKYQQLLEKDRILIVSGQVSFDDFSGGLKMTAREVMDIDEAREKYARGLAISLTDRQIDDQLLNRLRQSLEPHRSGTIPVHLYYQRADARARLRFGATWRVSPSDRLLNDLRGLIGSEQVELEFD
The assay is described as follows: In vitro DnaE single enzyme assay (E. coli). Type of assay: biochemical. An outline of the steps: as §1

With `CO[C@H]1C[C@H]2C=CC3C4[C@H](O)[C@@H](C)[C@@H](OC(=O)c5ccc[nH]5)[C@@H]3O[C@]42/C(C)=C/[C@@H](C)[C@@H]([C@@H](C)OC(=O)C(=O)N2CCOCC2)OC1=O` [Example 118], the “S. aureus COL (MIC)” value in assay [1] was determined as 0.5 µg/mL. The “P. aeruginosa MB5890 efflux-del (MIC)” value in assay [2] came out at 32 µg/mL. In addition, the “MICs compared with nargenicin” value in assay [3] is “equal to or better than nargenicin”. Further, in assay [4], the “S. pneumoniae MB2883 (MIC)” value is 128 µg/mL. Moreover, the “S. aureus DnaE IC50” value in assay [5] was determined as 4 ng/mL. In assay [6], the “E. coli LS883 tolC (MIC)” value came to 1 µg/mL. Besides, the “E. coli DnaE IC50” value in assay [7] was more than 100 µg/mL.
